# From BindingDB's records for PubMed 8627566 (Hoechst Marion Roussel, 1996)
# Starred links: 1 amine or outer side, 2 acyl side, 3 side chain; linkers in the order of their positions; H or OH if unused. Positions of bridges follow the written chain, without caps; N, C: chain ends. Non-standard residues stand in square brackets, D forms with d. Residues, ends and D or L forms follow the SMILES beside them. *: point of attachment. X2 = CN(C(=Cc1ccc(O)cc1)C(=O)[*:2])[*:1]; X1 = CCCCCc1ccccc1CCC(=O)*
# Key:
# Substance-K receptor [1] = molecular target: T1, Substance-K receptor (Homo sapiens, UniProt P21452)
# T1 sequence (P21452 whole entry): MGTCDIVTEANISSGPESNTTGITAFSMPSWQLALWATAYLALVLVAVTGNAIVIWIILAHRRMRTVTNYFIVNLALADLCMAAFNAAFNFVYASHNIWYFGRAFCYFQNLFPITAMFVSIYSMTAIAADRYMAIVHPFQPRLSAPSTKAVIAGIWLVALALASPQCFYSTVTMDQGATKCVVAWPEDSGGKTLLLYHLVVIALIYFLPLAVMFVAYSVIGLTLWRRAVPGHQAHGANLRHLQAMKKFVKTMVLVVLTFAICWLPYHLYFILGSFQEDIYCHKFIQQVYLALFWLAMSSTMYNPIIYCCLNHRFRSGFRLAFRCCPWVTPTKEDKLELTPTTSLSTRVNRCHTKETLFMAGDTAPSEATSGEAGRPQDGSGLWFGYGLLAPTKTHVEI
# Neuromedin-K receptor = molecular target: T2, Neuromedin-K receptor (Cavia porcellus, UniProt P30098)
# T2 sequence (P30098 whole entry): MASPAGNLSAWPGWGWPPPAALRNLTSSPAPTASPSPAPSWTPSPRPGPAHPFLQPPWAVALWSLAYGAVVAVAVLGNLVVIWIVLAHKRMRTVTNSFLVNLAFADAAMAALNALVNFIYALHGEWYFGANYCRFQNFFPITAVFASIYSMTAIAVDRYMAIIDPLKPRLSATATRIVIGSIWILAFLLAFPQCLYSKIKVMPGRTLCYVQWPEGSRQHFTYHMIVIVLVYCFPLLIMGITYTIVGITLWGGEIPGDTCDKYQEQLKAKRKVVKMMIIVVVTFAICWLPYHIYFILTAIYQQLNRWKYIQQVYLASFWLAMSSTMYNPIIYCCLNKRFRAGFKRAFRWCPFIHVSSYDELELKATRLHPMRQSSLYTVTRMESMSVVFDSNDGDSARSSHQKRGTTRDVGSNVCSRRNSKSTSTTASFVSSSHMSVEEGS
# Substance-P receptor [2] = molecular target: Substance-P receptor (Homo sapiens, UniProt P25103)
# Chain of Substance-P receptor (Homo sapiens, UniProt P25103) (P25103 whole entry): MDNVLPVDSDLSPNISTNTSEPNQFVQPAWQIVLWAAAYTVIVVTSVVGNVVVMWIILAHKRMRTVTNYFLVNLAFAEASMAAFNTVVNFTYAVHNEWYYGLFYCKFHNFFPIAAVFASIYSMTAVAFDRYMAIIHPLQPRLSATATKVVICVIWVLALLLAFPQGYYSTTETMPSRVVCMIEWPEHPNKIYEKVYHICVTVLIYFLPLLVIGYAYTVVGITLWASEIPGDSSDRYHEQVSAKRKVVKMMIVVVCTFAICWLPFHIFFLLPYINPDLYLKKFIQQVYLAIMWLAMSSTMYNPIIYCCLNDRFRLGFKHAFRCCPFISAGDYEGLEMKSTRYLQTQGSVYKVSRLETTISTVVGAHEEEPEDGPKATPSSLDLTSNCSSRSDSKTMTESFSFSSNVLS
# Substance-P receptor [3] = molecular target: Substance-P receptor (Rattus norvegicus, UniProt P14600)
# Chain of Substance-P receptor (Rattus norvegicus, UniProt P14600) (P14600 whole entry): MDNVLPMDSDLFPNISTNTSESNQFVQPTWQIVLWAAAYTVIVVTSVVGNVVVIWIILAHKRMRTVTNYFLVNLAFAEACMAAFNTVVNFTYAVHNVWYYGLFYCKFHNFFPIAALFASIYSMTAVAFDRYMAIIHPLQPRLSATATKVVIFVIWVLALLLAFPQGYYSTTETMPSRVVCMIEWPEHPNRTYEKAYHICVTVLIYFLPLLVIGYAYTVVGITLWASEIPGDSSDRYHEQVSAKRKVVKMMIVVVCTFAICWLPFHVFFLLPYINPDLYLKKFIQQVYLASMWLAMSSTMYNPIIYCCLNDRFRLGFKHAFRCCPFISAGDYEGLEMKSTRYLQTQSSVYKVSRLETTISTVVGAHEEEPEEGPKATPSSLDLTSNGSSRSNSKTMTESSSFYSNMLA
# Substance-P receptor [4] = molecular target: Substance-P receptor (Cavia porcellus, UniProt P30547)
# Chain of Substance-P receptor (Cavia porcellus, UniProt P30547) (P30547 whole entry): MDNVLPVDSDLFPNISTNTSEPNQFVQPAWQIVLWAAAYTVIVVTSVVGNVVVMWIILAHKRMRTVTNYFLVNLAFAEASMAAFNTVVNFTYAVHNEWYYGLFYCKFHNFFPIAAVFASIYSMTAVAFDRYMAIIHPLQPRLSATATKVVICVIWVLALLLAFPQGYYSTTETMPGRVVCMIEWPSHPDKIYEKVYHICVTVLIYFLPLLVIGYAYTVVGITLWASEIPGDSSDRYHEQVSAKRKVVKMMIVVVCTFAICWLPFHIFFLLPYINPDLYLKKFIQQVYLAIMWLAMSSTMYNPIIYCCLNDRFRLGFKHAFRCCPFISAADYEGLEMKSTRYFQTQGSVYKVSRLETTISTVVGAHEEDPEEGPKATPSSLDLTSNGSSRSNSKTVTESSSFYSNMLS
# Substance-K receptor [5] = molecular target: T3, Substance-K receptor (Mesocricetus auratus, UniProt P51144)
# T3 sequence (P51144 whole entry): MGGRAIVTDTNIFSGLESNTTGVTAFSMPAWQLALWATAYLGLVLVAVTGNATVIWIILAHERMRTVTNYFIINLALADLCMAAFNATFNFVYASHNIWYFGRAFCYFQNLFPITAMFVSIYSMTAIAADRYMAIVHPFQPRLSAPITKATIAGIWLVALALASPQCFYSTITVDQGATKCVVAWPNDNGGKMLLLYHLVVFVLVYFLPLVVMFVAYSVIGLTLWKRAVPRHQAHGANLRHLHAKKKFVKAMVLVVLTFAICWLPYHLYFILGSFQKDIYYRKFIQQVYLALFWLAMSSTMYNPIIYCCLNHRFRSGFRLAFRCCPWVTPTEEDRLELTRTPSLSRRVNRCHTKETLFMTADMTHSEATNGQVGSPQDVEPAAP
# Substance-K receptor [6] = molecular target: T4, Substance-K receptor (Bos taurus, UniProt P05363)
# T4 sequence (P05363 whole entry): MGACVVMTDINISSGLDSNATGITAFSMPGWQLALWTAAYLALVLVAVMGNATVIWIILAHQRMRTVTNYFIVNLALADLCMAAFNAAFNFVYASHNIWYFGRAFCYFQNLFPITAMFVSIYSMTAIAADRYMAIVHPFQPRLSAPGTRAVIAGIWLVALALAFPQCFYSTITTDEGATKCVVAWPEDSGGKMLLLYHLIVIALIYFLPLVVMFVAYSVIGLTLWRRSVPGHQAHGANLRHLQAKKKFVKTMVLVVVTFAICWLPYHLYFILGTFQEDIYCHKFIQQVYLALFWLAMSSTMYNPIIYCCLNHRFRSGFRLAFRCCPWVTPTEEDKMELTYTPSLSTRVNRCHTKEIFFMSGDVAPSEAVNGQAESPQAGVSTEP
Compound,Ki (Substance-K receptor [1]) [nM],Ki (Neuromedin-K receptor) [nM],Ki (Substance-P receptor [2]) [nM],Ki (Substance-P receptor [3]) [nM],Ki (Substance-P receptor [4]) [nM],Ki (Substance-K receptor [5]) [nM],Ki (Substance-K receptor [6]) [nM]
COc1ccccc1CN[C@H]1C2CCN(CC2)[C@H]1C(c1ccccc1)c1ccccc1,> 10000,> 10000,–,–,–,–,–
COc1cc(C(=O)N2CC[C@@](CCN3CCC(C(N)=O)(c4ccccc4)CC3)(c3ccc(Cl)c(Cl)c3)C2)cc(OC)c1OC,8.4,21,3.11,408,2.12,6.98,8.49
COc1cc(C(=O)N2CC[C@](CCN3CCC(C(N)=O)(c4ccccc4)CC3)(c3ccc(Cl)c(Cl)c3)C2)cc(OC)c1OC,21,54.3,7.07,–,5.88,–,–
"COc1cc(C(=O)N2CC[C@](CCN3CCC(C(N)=O)(c4ccccc4)CC3)(c3ccc(Cl)c(Cl)c3)C2)cc(OC)c1OC [1-{2-[(R)-3-(3,4-Dichloro-phenyl)-1-(3,4,5-trimethoxy-benzoyl)-pyrrolidin-3-yl]-ethyl}-4-phenyl-piperidine-4-carboxylic acid amide]",760,2310,160,2200,183,711,207
CCCCCc1ccccc1CCC(=O)NC1C(=O)N(C)C(=Cc2ccc(O)cc2)C(=O)NC(CC(C)C)C(=O)NC(Cc2ccccc2)C(=O)NC(C(C)O)C(=O)NC(CC(N)=O)C(=O)NC(CO)C(=O)OC1C (stereo not given) [CAS_6437864] (X1-T[X2]LFTNS; ester 1-C; configuration not given here),434,3550,215,228,98.7,3590,311
CN(Cc1ccccc1)C(=O)[C@@H](Cc1ccc2ccccc2c1)NC(=O)C1C[C@@H](O)CN1C(=O)c1cn(C)c2ccccc12 (stereo not given in full) [FK 888],1520,5620,1.49,2070,3.13,–,–
"COc1cc(C(=O)N2CC[C@@](CCN3CCC(C(N)=O)(c4ccccc4)CC3)(c3ccc(Cl)c(Cl)c3)C2)cc(OC)c1OC [MDL 105,212A (R)-enantiomer]",7.93,–,3.69,–,2.99,–,8.4
CSCC[C@H](NC(=O)[C@H](CC(C)C)NC(=O)CNC(=O)[C@@H](NC(=O)[C@H](Cc1ccccc1)NC(=O)[C@H](CO)NC(=O)[C@H](CC(=O)O)NC(=O)[C@@H](NC(=O)[C@H](CCCCN)NC(=O)[C@@H](N)Cc1cnc[nH]1)[C@@H](C)O)C(C)C)C(N)=O [Neurokinin alpha],–,–,–,–,–,1.8,–
COc1ccccc1CC(=N)N1C[C@@H]2C(=O)CCC(c3ccccc3)(c3ccccc3)[C@@H]2C1 [RP-67580],–,–,–,8.29,36,–,–
CC(=O)NC1(c2ccccc2)CCN(CCC(CN(C)C(=O)c2ccccc2)c2ccc(Cl)c(Cl)c2)CC1 (stereo not given) [SR 48968],0.44,208,593,–,217,7.32,0.71
